From ChEMBL document CHEMBL1268814, “Synthesis and biological evaluation of bivalent ligands for the cannabinoid 1 receptor” (J Med Chem, 2010)
pEC50, pKi: −log10 of the molar value. Each block holds one compound with its values, some of them ahead of it. Active and inactive are the calls of the source. The rule behind the calls is not given here.

Columns and labels:
Cannabinoid receptor 1 [1] = target: T1, Cannabinoid receptor 1 (Homo sapiens, UniProt P21554); experiment: Displacement of [3H]CP55940 from human CB1 receptor expressed in HEK293 cells; assay type: cell-based
Cannabinoid receptor 1 [2] = target: T1, Cannabinoid receptor 1; experiment: biochemical; assay type: cell-based, HEK293
Cannabinoid receptor 2 = Cannabinoid receptor 2 (Homo sapiens, UniProt P34972); experiment: Displacement of [3H]CP55940 from human CB2 receptor expressed in CHOK1 cells; assay type: cell-based, CHO-K1
Cannabinoid receptor 1 [3] = target: Cannabinoid receptor 1 (Rattus norvegicus, UniProt P20272); experiment: Antagonist activity at rat brain CB1 receptor assessed as inhibition of [35S]GTPgammaS binding; assay type: functional
[4] = target: Cannabinoid receptor 1 (Rattus norvegicus) (UniProt P20272); experiment: Antagonist activity at rat brain CB1 receptor assessed as inhibition of [35S]GTPgammaS binding at 10000 nM; assay type: functional
Cannabinoid receptor 1 [5] = target: T1, Cannabinoid receptor 1; experiment: Antagonist activity at human brain CB1 receptor by calcium mobilization assay; assay type: functional; conditions: read-out: pA2 (converted)
Cannabinoid receptor 1 [6] = target: T1, Cannabinoid receptor 1; conditions: CHO
Mus musculus = experiment: Inhibition of compound 21-induced antinociception in mouse at 10 mg/kg, ip administered 30 mins before compound-21 dosing by tail flick latency test
Cannabinoid receptor 1 [7] = target: T1, Cannabinoid receptor 1; experiment: Antagonist activity at human brain CB1 receptor assessed as inhibition for [35S]GTPgammaS binding; assay type: functional
Cannabinoid receptor 1 [8] = target: T1, Cannabinoid receptor 1; experiment: Antagonist activity at human brain CB1 receptor assessed as inhibition for [35S]GTPgammaS binding at 10000 nM; assay type: functional

T1 sequence (P21554 whole entry): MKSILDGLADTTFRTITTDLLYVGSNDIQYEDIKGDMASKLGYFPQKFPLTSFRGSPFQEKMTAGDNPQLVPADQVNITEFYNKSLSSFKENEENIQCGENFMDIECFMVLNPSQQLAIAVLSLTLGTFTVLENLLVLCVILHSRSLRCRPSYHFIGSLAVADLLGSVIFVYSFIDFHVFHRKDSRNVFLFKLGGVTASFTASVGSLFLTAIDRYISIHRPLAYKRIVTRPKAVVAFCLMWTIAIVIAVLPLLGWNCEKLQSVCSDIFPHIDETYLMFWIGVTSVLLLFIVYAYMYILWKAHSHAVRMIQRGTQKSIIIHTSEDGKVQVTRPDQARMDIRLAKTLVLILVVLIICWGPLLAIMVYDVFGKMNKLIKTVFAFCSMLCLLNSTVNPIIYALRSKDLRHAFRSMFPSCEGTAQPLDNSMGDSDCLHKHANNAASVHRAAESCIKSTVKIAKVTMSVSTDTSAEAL
Cannabinoid receptor 1 (Rattus norvegicus, UniProt P20272), sequence (P20272 whole entry): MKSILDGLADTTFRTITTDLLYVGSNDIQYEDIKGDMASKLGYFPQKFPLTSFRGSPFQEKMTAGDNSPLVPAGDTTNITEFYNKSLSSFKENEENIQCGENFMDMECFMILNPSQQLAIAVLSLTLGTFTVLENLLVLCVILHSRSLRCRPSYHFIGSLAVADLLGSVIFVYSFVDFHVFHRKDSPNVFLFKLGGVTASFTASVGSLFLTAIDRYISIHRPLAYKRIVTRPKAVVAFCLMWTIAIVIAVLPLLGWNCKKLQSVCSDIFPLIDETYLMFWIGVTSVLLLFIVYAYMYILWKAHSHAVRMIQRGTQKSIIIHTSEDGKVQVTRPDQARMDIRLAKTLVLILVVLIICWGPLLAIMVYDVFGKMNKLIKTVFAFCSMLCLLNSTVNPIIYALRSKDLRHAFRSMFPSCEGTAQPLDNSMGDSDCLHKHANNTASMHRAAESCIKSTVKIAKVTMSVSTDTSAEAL
Cannabinoid receptor 1 (Rattus norvegicus), sequence (P20272 whole entry): as above
Cannabinoid receptor 2, sequence (P34972 whole entry): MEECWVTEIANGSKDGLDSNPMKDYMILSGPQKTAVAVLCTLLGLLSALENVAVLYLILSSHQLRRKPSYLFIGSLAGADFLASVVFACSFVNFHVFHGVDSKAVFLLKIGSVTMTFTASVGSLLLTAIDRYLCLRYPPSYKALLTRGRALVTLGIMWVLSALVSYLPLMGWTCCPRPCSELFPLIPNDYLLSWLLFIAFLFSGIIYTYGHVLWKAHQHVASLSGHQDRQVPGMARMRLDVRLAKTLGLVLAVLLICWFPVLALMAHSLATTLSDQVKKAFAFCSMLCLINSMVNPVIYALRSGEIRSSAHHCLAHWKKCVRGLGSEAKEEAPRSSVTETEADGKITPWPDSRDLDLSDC

Compound: Cc1c(C(=O)NCCCCCCCCCNCCCCCCCCCN)nn(-c2ccc(Cl)cc2Cl)c1-c1ccc(Cl)cc1
pKi (Cannabinoid receptor 1 [1]): 7.85
pKi (Cannabinoid receptor 1 [2]): 8.26
pKi (Cannabinoid receptor 2): 6.38
pEC50 (Cannabinoid receptor 1 [3]): 5.62
Emax [4]: -65.2%
Kb (Cannabinoid receptor 1 [5]): 5.62 nM
Ke (Cannabinoid receptor 1 [6]): 31.6 nM

Compound: Cc1c(C(=O)NCCCCCCCCCCCN(C)CCCCCCCCCCCN)nn(-c2ccc(Cl)cc2Cl)c1-c1ccc(Cl)cc1
pKi (Cannabinoid receptor 1 [1]): 7.83
pKi (Cannabinoid receptor 1 [2]): 8.26
pKi (Cannabinoid receptor 2): 6.37
pEC50 (Cannabinoid receptor 1 [3]): 5.06
Emax [4]: -49.3%
Kb (Cannabinoid receptor 1 [5]): 23.4 nM
Ke (Cannabinoid receptor 1 [6]): 206 nM

Compound: Cc1c(C(=O)NCCCCCCCNCCCCCCCN)nn(-c2ccc(Cl)cc2Cl)c1-c1ccc(Cl)cc1
pKi (Cannabinoid receptor 1 [1]): 7.33
pKi (Cannabinoid receptor 1 [2]): 7.71
pKi (Cannabinoid receptor 2): 6.21
pEC50 (Cannabinoid receptor 1 [3]): 5.48
Emax [4]: -52.8%
Kb (Cannabinoid receptor 1 [5]): 20.4 nM
Ke (Cannabinoid receptor 1 [6]): 503 nM
inhibition (Mus musculus): inactive

Compound: Cc1c(C(=O)NCCCCCCCCCCCN(C)CCCCCCCCCCCNC(=O)c2nn(-c3ccc(Cl)cc3Cl)c(-c3ccc(Cl)cc3)c2C)nn(-c2ccc(Cl)cc2Cl)c1-c1ccc(Cl)cc1
pKi (Cannabinoid receptor 1 [1]): 5.72
pKi (Cannabinoid receptor 1 [2]): 5.89
pEC50 (Cannabinoid receptor 1 [3]): 7.53
Emax [4]: 17.3%
pEC50 (Cannabinoid receptor 1 [7]): < 4.60
Kb (Cannabinoid receptor 1 [5]): 501 nM
Ke (Cannabinoid receptor 1 [6]): inactive

Compound: Cc1c(C(=O)NCCNCCNC(=O)c2nn(-c3ccc(Cl)cc3Cl)c(-c3ccc(Cl)cc3)c2C)nn(-c2ccc(Cl)cc2Cl)c1-c1ccc(Cl)cc1
pKi (Cannabinoid receptor 1 [1]): 6.64
pKi (Cannabinoid receptor 1 [2]): 7.03
pKi (Cannabinoid receptor 2): 5.89
pEC50 (Cannabinoid receptor 1 [3]): < 5.00
Emax [4]: -35.9%
pEC50 (Cannabinoid receptor 1 [7]): 6.63
Emax (Cannabinoid receptor 1 [8]): -25.5%
Kb (Cannabinoid receptor 1 [5]): 83.2 nM
Ke (Cannabinoid receptor 1 [6]): 2700 nM

pKi (Cannabinoid receptor 1 [1]): 5.91
pKi (Cannabinoid receptor 1 [2]): 6.30
pKi (Cannabinoid receptor 2): < 5.60
pEC50 (Cannabinoid receptor 1 [3]): 5.14
Emax [4]: -22.9%
Ke (Cannabinoid receptor 1 [6]): inactive
Compound: Cc1c(C(=O)NCCNCCN)nn(-c2ccc(Cl)cc2Cl)c1-c1ccc(Cl)cc1

Compound: Cc1c(C(=O)NCCCCCCCN(C)CCCCCCCNC(=O)c2nn(-c3ccc(Cl)cc3Cl)c(-c3ccc(Cl)cc3)c2C)nn(-c2ccc(Cl)cc2Cl)c1-c1ccc(Cl)cc1
pKi (Cannabinoid receptor 1 [1]): 7.76
pKi (Cannabinoid receptor 1 [2]): 7.56
pEC50 (Cannabinoid receptor 1 [3]): 5.84
Emax [4]: -40.8%
pEC50 (Cannabinoid receptor 1 [7]): 5.65
Emax (Cannabinoid receptor 1 [8]): -32.7%
Kb (Cannabinoid receptor 1 [5]): 4.27 nM
Ke (Cannabinoid receptor 1 [6]): 478 nM
inhibition (Mus musculus): Active

Compound: Cc1c(C(=O)NCCCCCCCNCCCCCCCNC(=O)c2nn(-c3ccc(Cl)cc3Cl)c(-c3ccc(Cl)cc3)c2C)nn(-c2ccc(Cl)cc2Cl)c1-c1ccc(Cl)cc1
pKi (Cannabinoid receptor 1 [1]): 7.91
pKi (Cannabinoid receptor 1 [2]): 8.36
pKi (Cannabinoid receptor 2): 6.26
pEC50 (Cannabinoid receptor 1 [3]): 5.92
Emax [4]: -25%
pEC50 (Cannabinoid receptor 1 [7]): 6.75
Emax (Cannabinoid receptor 1 [8]): -38.8%
Kb (Cannabinoid receptor 1 [5]): 8.32 nM
Ke (Cannabinoid receptor 1 [6]): 567 nM
inhibition (Mus musculus): inactive

Compound: Cc1c(C(=O)NCCCCCN(C)CCCCCN)nn(-c2ccc(Cl)cc2Cl)c1-c1ccc(Cl)cc1
pKi (Cannabinoid receptor 1 [1]): 6.79
pKi (Cannabinoid receptor 1 [2]): 7.05
pEC50 (Cannabinoid receptor 1 [3]): 5.52
Emax [4]: -53.3%
Kb (Cannabinoid receptor 1 [5]): 309 nM
Ke (Cannabinoid receptor 1 [6]): 2870 nM

Compound: Cc1c(C(=O)NCCCCCCCCCN(C)CCCCCCCCCNC(=O)c2nn(-c3ccc(Cl)cc3Cl)c(-c3ccc(Cl)cc3)c2C)nn(-c2ccc(Cl)cc2Cl)c1-c1ccc(Cl)cc1
pKi (Cannabinoid receptor 1 [1]): 6.61
pKi (Cannabinoid receptor 1 [2]): 7.03
pEC50 (Cannabinoid receptor 1 [3]): < 5.00
pEC50 (Cannabinoid receptor 1 [7]): 6.79
Emax (Cannabinoid receptor 1 [8]): -23%
Kb (Cannabinoid receptor 1 [5]): 29.5 nM
Ke (Cannabinoid receptor 1 [6]): inactive

Compound: Cc1c(C(=O)NCCCCCCCCCCCNCCCCCCCCCCCN)nn(-c2ccc(Cl)cc2Cl)c1-c1ccc(Cl)cc1
pKi (Cannabinoid receptor 1 [1]): 8.34
pKi (Cannabinoid receptor 1 [2]): 8.64
pKi (Cannabinoid receptor 2): 6.52
pEC50 (Cannabinoid receptor 1 [3]): 5.44
Emax [4]: -29.2%
Kb (Cannabinoid receptor 1 [5]): 3.16 nM
Ke (Cannabinoid receptor 1 [6]): 146 nM

Compound: Cc1c(C(=O)NCCCCCNCCCCCNC(=O)c2nn(-c3ccc(Cl)cc3Cl)c(-c3ccc(Cl)cc3)c2C)nn(-c2ccc(Cl)cc2Cl)c1-c1ccc(Cl)cc1
pKi (Cannabinoid receptor 1 [1]): 7.17
pKi (Cannabinoid receptor 1 [2]): 7.52
pKi (Cannabinoid receptor 2): 6.35
pEC50 (Cannabinoid receptor 1 [3]): < 5.00
Emax [4]: -29.6%
pEC50 (Cannabinoid receptor 1 [7]): 7.48
Emax (Cannabinoid receptor 1 [8]): 8.5%
Kb (Cannabinoid receptor 1 [5]): 29.5 nM
Ke (Cannabinoid receptor 1 [6]): 476 nM

Compound: Cc1c(C(=O)NCCCCCCCCCN(C)CCCCCCCCCN)nn(-c2ccc(Cl)cc2Cl)c1-c1ccc(Cl)cc1
pKi (Cannabinoid receptor 1 [1]): 8.00
pKi (Cannabinoid receptor 1 [2]): 8.21
pKi (Cannabinoid receptor 2): 6.58
pEC50 (Cannabinoid receptor 1 [3]): 5.47
Emax [4]: -67.9%
Kb (Cannabinoid receptor 1 [5]): 4.57 nM
Ke (Cannabinoid receptor 1 [6]): 141 nM

Compound: Cc1c(C(=O)NCCCCCNCCCCCN)nn(-c2ccc(Cl)cc2Cl)c1-c1ccc(Cl)cc1
pKi (Cannabinoid receptor 1 [1]): 6.46
pKi (Cannabinoid receptor 1 [2]): 6.64
pKi (Cannabinoid receptor 2): < 5.60
pEC50 (Cannabinoid receptor 1 [3]): 5.65
Emax [4]: -40.7%
Kb (Cannabinoid receptor 1 [5]): 759 nM
Ke (Cannabinoid receptor 1 [6]): 5400 nM

pKi (Cannabinoid receptor 1 [1]): < 5.60
pKi (Cannabinoid receptor 1 [2]): < 5.60
pKi (Cannabinoid receptor 2): < 5.60
pEC50 (Cannabinoid receptor 1 [3]): < 5.00
Emax [4]: -34.8%
Ke (Cannabinoid receptor 1 [6]): inactive
Compound: Cc1c(C(=O)NCCCNCCCN)nn(-c2ccc(Cl)cc2Cl)c1-c1ccc(Cl)cc1

Compound: Cc1c(C(=O)NCCCCCCCN(C)CCCCCCCN)nn(-c2ccc(Cl)cc2Cl)c1-c1ccc(Cl)cc1
pKi (Cannabinoid receptor 1 [1]): 7.43
pKi (Cannabinoid receptor 1 [2]): 7.81
pKi (Cannabinoid receptor 2): 5.71
pEC50 (Cannabinoid receptor 1 [3]): 5.36
Emax [4]: -62%
Kb (Cannabinoid receptor 1 [5]): 21.9 nM
Ke (Cannabinoid receptor 1 [6]): 220 nM
inhibition (Mus musculus): Active

Compound: Cc1c(C(=O)NCCCCCCCCCNCCCCCCCCCNC(=O)c2nn(-c3ccc(Cl)cc3Cl)c(-c3ccc(Cl)cc3)c2C)nn(-c2ccc(Cl)cc2Cl)c1-c1ccc(Cl)cc1
pKi (Cannabinoid receptor 1 [1]): 7.27
pKi (Cannabinoid receptor 1 [2]): 7.24
pKi (Cannabinoid receptor 2): < 5.60
pEC50 (Cannabinoid receptor 1 [3]): 8.87
Emax [4]: 10.4%
pEC50 (Cannabinoid receptor 1 [7]): 7.55
Emax (Cannabinoid receptor 1 [8]): 6.5%
Kb (Cannabinoid receptor 1 [5]): 17.4 nM
Ke (Cannabinoid receptor 1 [6]): 4160 nM

Compound: Cc1c(C(=O)NCCCCCCCCCCCNCCCCCCCCCCCNC(=O)c2nn(-c3ccc(Cl)cc3Cl)c(-c3ccc(Cl)cc3)c2C)nn(-c2ccc(Cl)cc2Cl)c1-c1ccc(Cl)cc1
pKi (Cannabinoid receptor 1 [1]): 7.00
pKi (Cannabinoid receptor 1 [2]): 7.43
pKi (Cannabinoid receptor 2): < 5.60
pEC50 (Cannabinoid receptor 1 [3]): < 5.00
Emax [4]: -12.2%
pEC50 (Cannabinoid receptor 1 [7]): < 4.60
Kb (Cannabinoid receptor 1 [5]): 27.5 nM
Ke (Cannabinoid receptor 1 [6]): > 10000 nM

Compound: Cc1c(C(=O)NCCCCCN(C)CCCCCNC(=O)c2nn(-c3ccc(Cl)cc3Cl)c(-c3ccc(Cl)cc3)c2C)nn(-c2ccc(Cl)cc2Cl)c1-c1ccc(Cl)cc1
pKi (Cannabinoid receptor 1 [1]): 7.41
pKi (Cannabinoid receptor 1 [2]): 8.20
pKi (Cannabinoid receptor 2): 5.98
pEC50 (Cannabinoid receptor 1 [3]): 8.75
Emax [4]: -3.8%
pEC50 (Cannabinoid receptor 1 [7]): 7.22
Emax (Cannabinoid receptor 1 [8]): -13.1%
Kb (Cannabinoid receptor 1 [5]): 11 nM
Ke (Cannabinoid receptor 1 [6]): 108 nM

Compound: Cc1c(C(=O)NCCCNCCCNC(=O)c2nn(-c3ccc(Cl)cc3Cl)c(-c3ccc(Cl)cc3)c2C)nn(-c2ccc(Cl)cc2Cl)c1-c1ccc(Cl)cc1
pKi (Cannabinoid receptor 1 [1]): 6.76
pKi (Cannabinoid receptor 1 [2]): 7.38
pKi (Cannabinoid receptor 2): 6.30
pEC50 (Cannabinoid receptor 1 [3]): 6.14
Emax [4]: -37.2%
pEC50 (Cannabinoid receptor 1 [7]): 7.07
Emax (Cannabinoid receptor 1 [8]): -31.9%
Kb (Cannabinoid receptor 1 [5]): 38.9 nM
Ke (Cannabinoid receptor 1 [6]): 1300 nM
